Drawing on patent publication US4229443A, “Derivatives of penicillanic acid” (Leo Pharmaceutical Products, Ltd. A/S, priority 1976, dated 1980), this text covers IC50 for six compounds.

Values after ≈ are worked out from the molar mass of the structure shown. Counter-ions that a name gives are not always drawn.

Holding throughout (assay type): cell-based
Assay [1] relates to E.coli HA 2 Leo strain. The assay is described as follows: Antibacterial activity, 50% inhibition of growth, E.coli HA 2 Leo strain. The settings on record: Escherichia coli, HA2LEOSTRAIN, read-out: IC50 (concentration required for a 50% inhibition of growth). The source says:
(§1) In the table below the antibacterial activity of the compound of Example 1, the 6-[4'-(3"-aminopropyl)-1'-piperidyl-methyleneamino]penicillanic acid hydrochloride, in the table called EB 686, is compared to that of the known compounds Ampicillin and Mecillinam (a compound of the above mentioned British Pat. No. 1,293,590).
(§2) *IC50 means the concentration required for a 50% inhibition of […]

Assay [2] concerns Salmonella typhimurium NCTC 5710. Kind of assay: Antibacterial activity, 50% inhibition of growth, Salmonella typhimurium NCTC 5710. The settings on record: Salmonella enterica, read-out: IC50 (concentration required for a 50% inhibition of growth).
Description: as §1, §2

Assay [3] concerns Pseudomonas aeruginosa BA 2 Leo strain. Kind of assay: Antibacterial activity, 50% inhibition of growth, Pseudomonas aeruginosa BA 2 Leo strain. The settings on record: BA2LEOSTRAIN, read-out: IC50 (concentration required for a 50% inhibition of growth).
Description: as §1, §2

Assay [4] has as its system Pseudomonas aeruginosa PS 18s. The assay is described as follows: Antibacterial activity, 50% inhibition of growth, Pseudomonas aeruginosa PS 18s. The conditions noted are these: PS18S, read-out: IC50 (concentration required for a 50% inhibition of growth).
Description: as §1, §2

Assay [5] relates to E.coli W3110 (RTEM). Kind of assay: Antibacterial activity, 50% inhibition of growth, E.coli W3110 (RTEM). The settings on record: Escherichia coli, read-out: IC50 (concentration required for a 50% inhibition of growth).
Description: as §1, §2

Assay [6] has as its system Salmonella cholerasuis NCTC 5735. The assay is described as follows: Antibacterial activity, 50% inhibition of growth, Salmonella cholerasuis NCTC 5735. The conditions noted are these: NCTC5735, read-out: IC50 (concentration required for a 50% inhibition of growth).
Description: as §1, §2

Assay [7] relates to Enterobacter cloacae P 99. Kind of assay: Antibacterial activity, 50% inhibition of growth, Enterobacter cloacae P 99. The conditions noted are these: P99, read-out: IC50 (concentration required for a 50% inhibition of growth).
Description: as §1, §2

For assay [8], the system named is Klebsiella pneumoniae AT CC 10273. Kind of assay: Antibacterial activity, 50% inhibition of growth, Klebsiella pneumoniae AT CC 10273. The conditions noted are these: ATCC10273, read-out: IC50 (concentration required for a 50% inhibition of growth).
Description: as §1, §2

With `CC1(C)S[C@@H]2[C@H](N=CN3CCC(CN=[N+]=[N-])CC3)C(=O)N2[C@H]1C(=O)O` [Example 2D, 6-[4'-azidomethyl-1'-piperidyl-methyleneamino]-penicillanic acid], the IC50 was 0.05 µg/mL (≈ 0.136 µM) in assay [1] and 0.2 µg/mL (≈ 0.546 µM) in assay [2].

As to `CC1(C)S[C@@H]2[C@H](N=CN3CCC(CCCN=[N+]=[N-])CC3)C(=O)N2[C@H]1C(=O)O` [Example 1D, 6-[4'-(3"-azidopropyl)-1'-piperidyl-methyleneamino]-penicillanic acid], the IC50 amounted to 0.04 µg/mL (≈ 0.101 µM) in assay [1] and 0.5 µg/mL (≈ 1.27 µM) in assay [2].

For `CC(C)(C)C(=O)OCOC(=O)[C@@H]1N2C(=O)[C@@H](N=CN3CCCC(C(CN)CN)CC3)[C@H]2SC1(C)C` (stereo partly shown) [Example 28F, Pivaloyloxymethyl 6-[(4'-(1",3"-diaminopropyl-2")-hexahydro-1'H-azepin-1'-yl)-methyleneamino]-penicillanate, trihydrochloride], the IC50 in assay [1] turned out to be 0.05 µg/mL; in assay [3] it was 20 µg/mL; in assay [2] it was 0.05 µg/mL.

In the case of `CC1(C)S[C@@H]2[C@H](/N=C/N3CCCCCC3)C(=O)N2[C@H]1C(=O)O` [Mecillinam], the IC50 in assay [4] is greater than 100 µg/mL; in assay [1], 0.016 µg/mL (≈ 0.0492 µM); in assay [5], 2 µg/mL (≈ 6.15 µM); in assay [6] it was 0.05 µg/mL (≈ 0.154 µM); in assay [7], 0.1 µg/mL (≈ 0.307 µM); in assay [8] it was roughly 1 µg/mL (≈ 3.07 µM). In addition, the IC50 is greater than 100 µg/mL in assay [3] and 0.05 µg/mL (≈ 0.154 µM) in assay [2].

Take `CC1(C)S[C@@H]2[C@H](NC(=O)[C@H](N)c3ccccc3)C(=O)N2[C@H]1C(=O)O` [Ampicillin]: the IC50 in assay [4] is 50 µg/mL (≈ 143 µM); in assay [1], 1.3 µg/mL (≈ 3.72 µM); in assay [5], greater than 100 µg/mL; in assay [6], 0.25 µg/mL (≈ 0.715 µM); in assay [7], greater than 100 µg/mL; in assay [8], 79 µg/mL (≈ 226 µM). The values for the IC50 in assay [3] and in assay [2] were greater than 100 µg/mL and 0.4 µg/mL (≈ 1.14 µM), respectively.

Regarding `CC1(C)S[C@@H]2[C@H](N=CN3CCC(CCCN)CC3)C(=O)N2[C@H]1C(=O)O` [EB 686, 6-[4'-(3"-aminopropyl)-1'-piperidyl-methyleneamino]-penicillanic acid monohydrochloride], the IC50 in assay [4] came out at 5 µg/mL; in assay [1], 0.016 µg/mL; in assay [5], 0.5 µg/mL; in assay [6] it was 0.0063 µg/mL; in assay [7], 0.02 µg/mL; in assay [8] it was 0.04 µg/mL. Besides, the results for the IC50 in assay [3] and in assay [2] were 16 µg/mL and 0.016 µg/mL, respectively.
